Data published in ChEMBL document CHEMBL2346598, “Synthesis and pharmacological characterization of 2-(acylamino)thiophene derivatives as metabolically stable, orally effective, positive allosteric modulators of the GABAB receptor” (J Med Chem, 2013).
Active and inactive are the calls of the source. The rule behind the calls is not given here.

How the values were obtained:
[1] = test system: Mus musculus; assay: Hypnotic effect in DBA mouse assessed as potentiation of pentobarbital-induced loss of righting reflex at 30 mg/kg, ip incubated for 30 mins prior to pentobarbital-challenge; format: functional, organism-based; design: dose 30 mg/kg
[2] = test system: Mus musculus; assay: Hypnotic effect in DBA mouse assessed as potentiation of baclofen-induced loss of righting reflex at 30 mg/kg, ip incubated for 30 mins prior to baclofen-challenge; format: functional, organism-based; design: dose 30 mg/kg
[3] = Elimination rate constant in mouse liver microsomes at 5 uM after 60 mins by LC/MS/MS analysis; format: ADME, Microsome
[4] = species: Rattus norvegicus; assay: Positive allosteric modulation of GABAB receptor in rat cortical membranes assessed as stimulation of [35S]GTPgammaS binding up to 100 uM after 30 mins by liquid scintillation counting analysis; format: functional, cell membranes; conditions: Membrane
[5] = test system: Mus musculus; assay: Hypnotic effect in DBA mouse assessed as potentiation of baclofen-induced loss of righting reflex at 1 mg/kg, ip incubated for 30 mins prior to baclofen-challenge; format: functional, organism-based; design: dose 1 mg/kg
[6] = test system: NIH3T3; assay: Cytotoxicity against mouse NIH/3T3 cells after 24 hrs by neutral red staining-based UV/visible spectrophotometric analysis; format: cell-based; conditions: NIH3T3, 24 h
[7] = test system: Mus musculus; assay: Hypnotic effect in ip dosed DBA mouse assessed as increase in baclofen-induced duration of loss of righting reflex incubated for 30 mins prior to baclofen-challenge; format: functional, organism-based
[8] = test system: Mus musculus; assay: Hypnotic effect in DBA mouse assessed as potentiation of pentobarbital-induced loss of righting reflex at 300 mg/kg, ip incubated for 30 mins prior to pentobarbital-challenge; format: functional, organism-based; design: dose 300 mg/kg
[9] = (§1) Positive allosteric modulation of GABAB receptor in rat cortical membranes assessed as potentiation of GABA-induced [35S]GTPgammaS binding after 30 mins by liquid scintillation counting analysis; format: functional, cell membranes, Membrane
[10] = test system: Mus musculus; assay: Hypnotic effect in DBA mouse assessed as potentiation of baclofen-induced loss of righting reflex at 300 mg/kg, ig incubated for 30 mins prior to baclofen-challenge; format: functional, organism-based; design: dose 300 mg/kg
[11] = test system: Mus musculus; assay: Hypnotic effect in DBA mouse assessed as increase in pentobarbital-induced duration of loss of righting reflex at 100 mg/kg, ip incubated for 30 mins prior to pentobarbital-challenge; format: functional; conditions: route intraperitoneal
[12] = Intrinsic clearance in mouse liver microsomes assessed per mg protein at 5 uM after 60 mins by LC/MS/MS analysis; format: ADME, Microsome; conditions: read-out: CLH
[13] = test system: Mus musculus; assay: Hypnotic effect in DBA mouse assessed as potentiation of baclofen-induced loss of righting reflex at 3 mg/kg, ip incubated for 30 mins prior to baclofen-challenge; format: functional, organism-based; design: dose 3 mg/kg
[14] = test system: Mus musculus; assay: Hypnotic effect in DBA mouse assessed as increase in baclofen-induced duration of loss of righting reflex at 300 mg/kg, ig incubated for 30 mins prior to baclofen-challenge relative to vehicle-treated control; format: functional, organism-based; design: dose 300 mg/kg
[15] = Drug metabolism in mouse liver microsomes at 5 uM after 60 mins by LC/MS/MS analysis; format: ADME, Microsome; conditions: read-out: Drug metabolism
[16] = test system: Mus musculus; assay: Hypnotic effect in DBA mouse assessed as increase in pentobarbital-induced duration of loss of righting reflex at 30 mg/kg, ip incubated for 30 mins prior to pentobarbital-challenge; format: functional; conditions: route intraperitoneal
[17] = test system: Mus musculus; assay: Hypnotic effect in DBA mouse assessed as reduction in pentobarbital-induced onset of loss of righting reflex at 100 mg/kg, ip incubated for 30 mins prior to pentobarbital-challenge (reference value: 60.0 +/- 0.0 min); format: functional; conditions: route intraperitoneal
[18] = test system: Mus musculus; assay: Hypnotic effect in DBA mouse assessed as potentiation of pentobarbital-induced loss of righting reflex at 100 mg/kg, ip incubated for 30 mins prior to pentobarbital-challenge; format: functional, organism-based; design: dose 100 mg/kg
[19] = test system: Mus musculus; assay: Hypnotic effect in DBA mouse assessed as potentiation of baclofen-induced loss of righting reflex at 10 mg/kg, ip incubated for 30 mins prior to baclofen-challenge; format: functional, organism-based; design: dose 10 mg/kg
[20] = test system: Mus musculus; assay: Hypnotic effect in DBA mouse assessed as reduction in baclofen-induced onset of loss of righting reflex at 300 mg/kg, ig incubated for 30 mins prior to baclofen-challenge relative to vehicle-treated control; format: functional, organism-based; design: dose 300 mg/kg
[21] = test system: Mus musculus; assay: Hypnotic effect in DBA mouse assessed as reduction in pentobarbital-induced onset of loss of righting reflex at 30 mg/kg, ip incubated for 30 mins prior to pentobarbital-challenge (reference value: 60.0 +/- 0.0 min); format: functional; conditions: route intraperitoneal
[22] = test system: Mus musculus; assay: Hypnotic effect in DBA mouse assessed as reduction in baclofen-induced onset of loss of righting reflex over 10 mg/kg, ip incubated for 30 mins prior to baclofen-challenge relative to vehicle-treated control; format: functional, organism-based; design: dose 10 mg/kg
[23] = test system: Mus musculus; assay: Hypnotic effect in DBA mouse assessed as potentiation of baclofen-induced loss of righting reflex at 100 mg/kg, ip incubated for 30 mins prior to baclofen-challenge; format: functional, organism-based; design: dose 100 mg/kg
[24] = test system: Mus musculus; assay: Hypnotic effect in DBA mouse assessed as reduction in pentobarbital-induced onset of loss of righting reflex at 300 mg/kg, ip incubated for 30 mins prior to pentobarbital-challenge (reference value: 60.0 +/- 0.0 min); format: functional; conditions: route intraperitoneal
[25] = test system: Mus musculus; assay: Hypnotic effect in DBA mouse assessed as potentiation of baclofen-induced loss of righting reflex at 300 mg/kg, ip incubated for 30 mins prior to baclofen-challenge; format: functional, organism-based; design: dose 300 mg/kg
[26] = species: Rattus norvegicus; assay: Positive allosteric modulation of GABAB receptor in rat cortical membranes assessed as potentiation of GABA-induced [35S]GTPgammaS binding at 30 uM after 30 mins by liquid scintillation counting analysis relative to GABA; format: functional, cell membranes; conditions: Membrane
[27] = species: Rattus norvegicus; assay: Positive allosteric modulation of GABAB receptor in rat cortical membranes assessed as potentiation of GABA-induced [35S]GTPgammaS binding at 25 uM after 30 mins by liquid scintillation counting analysis relative to GABA; format: functional, cell membranes; conditions: Membrane
[28] = test system: Mus musculus; assay: Hypnotic effect in DBA mouse assessed as increase in baclofen-induced duration of loss of righting reflex over 10 mg/kg, ip incubated for 30 mins prior to baclofen-challenge relative to vehicle-treated control; format: functional, organism-based; design: dose 10 mg/kg
[29] = test system: Mus musculus; assay: Hypnotic effect in ip dosed DBA mouse assessed as reduction in baclofen-induced onset of loss of righting reflex incubated 30 mins prior to baclofen-challenge; format: functional, organism-based
[30] = test system: Plasma; assay: Metabolic stability in mouse plasma at 5 uM after 30 mins by HPLC-MS analysis; format: ADME, cell-free; conditions: 0.5 h
[31] = test system: Mus musculus; assay: Hypnotic effect in DBA mouse assessed as increase in pentobarbital-induced duration of loss of righting reflex at 300 mg/kg, ip incubated for 30 mins prior to pentobarbital-challenge; format: functional; conditions: route intraperitoneal
[32] = species: Rattus norvegicus; assay: Positive allosteric modulation of GABAB receptor in rat cortical membranes assessed as potentiation of GABA-induced [35S]GTPgammaS binding at 2.5 uM after 30 mins by liquid scintillation counting analysis relative to GABA; format: functional, cell membranes; conditions: Membrane
[33] = test system: Mus musculus; assay: Hypnotic effect in ip dosed DBA mouse assessed as potentiation of pentobarbital-induced loss of righting reflex incubated for 30 mins prior to pentobarbital-challenge; format: functional, organism-based
[34] = test system: Mus musculus; assay: Hypnotic effect in DBA mouse assessed as increase in baclofen-induced duration of loss of righting reflex over 3 mg/kg, ip incubated for 30 mins prior to baclofen-challenge relative to vehicle-treated control; format: functional, organism-based; design: dose 3 mg/kg
[35] = species: Rattus norvegicus; assay: as §1; format: functional, cell membranes; conditions: Membrane
[36] = test system: Mus musculus; assay: Hypnotic effect in DBA mouse assessed as increase in baclofen-induced duration of loss of righting reflex at 100 to 300 mg/kg, ip incubated for 30 mins prior to baclofen-challenge relative to vehicle-treated control; format: functional, organism-based
[37] = test system: Mus musculus; assay: Hypnotic effect in DBA mouse assessed as reduction in baclofen-induced onset of loss of righting reflex at 100 to 300 mg/kg, ip incubated for 30 mins prior to baclofen-challenge relative to vehicle-treated control; format: functional, organism-based

Row | SMILES | Activity [1] | Activity [2] | k el at 1 h, 5 µM [3] [s⁻¹] | Activity [4] | Activity [5] | IC50 [6] [µM] | Activity [7] | Activity [8] | Activity [10] | Time [11] [min] | microsomal CLint at 5 µM [12] [µL/min/mg] | Activity [13] | Activity [14] | metabolised at 1 h, 5 µM [15] [%] | Time [16] [min] | Time [17] [min] | Activity [18] | Activity [19] | Activity [20] | Time [21] [min] | further results
1 | CCc1c(C)sc(NC(=O)c2ccc(Cl)cc2)c1C(=O)OC | inactive | Active | 0.000127 | inactive | Active | 59 | Dose-dependent effect | Active | Active | 4.8 | 7.9 | Active | Active | 28 | 0 | 51.8 | inactive | Active | Active | 60 | EC50 [9]: 1.11 µM; Activity [22]: Active; Activity [23]: Active; Time [24]: 45.8 min; Activity [25]: Active; Emax [26]: 51%; Activity [27]: 18.3%; Activity [28]: Active; Activity [29]: Dose-dependent effect; Stability [30]: Unstable; Time [31]: 7.3 min; Activity [32]: 9.2%
2 | CCc1c(C)sc(NC(=O)c2ccc(C(F)(F)F)cc2)c1C(=O)OC | inactive | Active | 0.000192 | inactive | Active | 54 | Dose-dependent effect | Active | Active | 7 | 12 | Active | Active | 40 | 2.3 | 45.2 | inactive | Active | Active | 54 | Activity [33]: Dose-dependent effect; EC50 [9]: 0.28 µM; Activity [22]: Active; Activity [23]: Active; Time [24]: 31.3 min; Activity [25]: Active; Activity [34]: Active; Emax [26]: 60%; Activity [27]: 27.3%; Activity [29]: Dose-dependent effect; Stability [30]: Unstable; Time [31]: 23.3 min; Activity [32]: 17.8%
3 | CCc1c(C)sc(NC(=O)c2ccc(C)cc2)c1C(=O)OC | inactive | Active | 0.000124 | inactive | inactive | 95 | Dose-dependent effect | Active | Active | 11.2 | 7.73 | Active | Active | 28 | 4.7 | 43.8 | inactive | Active | Active | 53.3 | Activity [35]: inactive; Activity [36]: Active; Activity [23]: Active; Time [24]: 26.7 min; Activity [25]: Active; Activity [37]: Active; Activity [27]: 18.2%; Activity [29]: Dose-dependent effect; Stability [30]: Unstable; Time [31]: 14 min; Activity [32]: 3.7%
